According to patent publication US20100048723A1, “Compositions and Methods for Preventing or Treating Obesity In Animals” (priority 2007, published 2010):
Marks after values point to notes of the source that are not given here.

Test system: canine genes
Assay: Canine cell culture genomic assay: modification of gene expression in vitro (Affymetrix canine gene chips)
Format: cell-based
Design: key: those genes that are modified by capsaicin are identified by an asterix (*)
Settings: canine cell lines CCL34, CRL1430, CCL183, CTAC; up or down regulation
Description: We have compiled a database of substances known to modify the expression of various canine genes in canine cells in vitro according to the following methods provided below and previously described (see, e.g., U.S. 2006-0200320 Al).
Test substances are assayed in two concentrations using the following canine cell lines: CCL34 (kidney), CRL1430 (thymus), CCL183 (bone) (all obtained from the American Tissue Culture Collection) and CTAC (thyroid) (see, Measurement of NK Activity in Effector Cells Purified from Canine Peripheral Lymphocytes, Veterinary Immunology and Immunopathology, 35 (1993) 239-25 1). Briefly, cells are cultured in OptiCell chambers according to conventional methods and the next day treated with test substance. The solvent used at the higher of the two concentrations is used as a control. The following day the cells are harvested for genomic assay.
RNA is isolated from the canine cultures using commercially available methods, e.g., an RNAeasy Mini Kit (Qiagen, Valencia, Calif.) according to the manufacturers instructions and conventional methods. The quality of the isolated RNA is analyzed using a RNA 6000 Nano Assay and an Agilent 2100 Bioanalyzer. The procedure is performed according to the manufacturer's instructions provided in the Reagent Kit Guide (see Edition November 2003, by Agilent Technologies) with the following modifications: during gel preparation, rather than separating the filtered gel into aliquots of 65 uL each, the stock filtered gel is kept in the original microcentrifuge tube and the 65 uL is aliquoted as needed; while loading the RNA 6000 Nano Marker, 1 uL of RNase-free water (instead of RNA 6000 Nano Marker) is added to each sample well that will not contain sample. When loading the RNA 6000 Ladder and samples, heat denature the samples and RNA 6000 Ladder for an additional 30 seconds (total of 2.5 minutes) at 71° C.; with regard to “Starting the Chip Run”, choose the “Eukaryote Total RNA Nano” option from the assay menu.
Gene expression is measured for the treatment cell lines and controls using Affymetrix canine gene chips Canine-1 and Canine-2 according to the manufacturer's instructions. Gene expression data is determined to be either “up” or “down”-regulated for any given treatment. The decision on whether a gene is “up” or “down” is based on the fold change, which is calculated as treatment intensity/control intensity for each individual probe. […] Also, a probe is considered significant for further scrutiny if it is called as “present” in only one of the conditions being compared (treatment or control) and is “absent” or “marginal” in the other and the fold change is significant according to the software used. Probes that appear to be regulated in opposite directions in the two treatments are excluded from further analysis. The raw data is analyzed using GeneSpring version 7.0 (GS) software (Agilent Corporation) and validated using the R-Bioconductor (RB) freeware. Both software packages are used to compute probe intensities from the CEL files generated by the Affymetrix Instrument. The Present/Absent/Marginal calls per probe and P-values are computed using the R-Bioconductor and GeneSpring software separately.
Two schemes are used for data analysis. First: “across cell lines” and “within individual cell lines.” In the first scheme, genes are selected for scoring provided they are found to be significant and common across all cell-lines. The “across cell lines” yields the highest confidence data with minimum noise and may provide the best possible clues as to which genes are affected by individual ingredients. In the second scheme, only those genes that show a significant fold change in the two treatments according to both software packages within an individual cell lines are scored.
Table 1A provided hereinabove is a list of canine genes the expression of which is modified in vitro in the presence of various compounds. […]

Q: `COc1cc(CNC(=O)CCCCC=CC(C)C)ccc1O` [capsaicin, 8-methyl-N-vanillyl-6-nonenamide] was tested. Which “expression of Complement component 4 modified in canine cells in vitro” value did it give?
A: Complement component 4 *

Q: And the “expression of Fragilis/homolog to rat interferon-inducible protein modified in canine cells in vitro” value?
A: protein*

Q: What about the “expression of Homolog to Homo sapiens interferon-induced 35-kDa protein modified in canine cells in vitro” value of the same compound?
A: kDa protein*

Q: And the “expression of L-Plastin/lymphocyte cytosolic protein 1 modified in canine cells in vitro” value?
A: L-Plastin/lymphocyte cytosolic protein 1*

Q: And the “expression of α Cytochrome b558/cytochrome b-245 modified in canine cells in vitro” value?
A: ^α Cytochrome b558/cytochrome b-245 *

Q: And the “expression of α Tubulin, 1 modified in canine cells in vitro” value?
A: ^α Tubulin, 1 *
